Literature values in patent US11174289B1, “Artificial intelligence designed antimicrobial peptides” (International Business Machines Corporation, priority 2020, dated 2021).

How the values were obtained:
[1] = no significant antimicrobial activity; strain not given
[2] = comparison value for the clinically used drug

**Q.** With FPVTWPTKWWKG [PuroB] as the substance, how does the MIC [1] read?
**A.** > 200 µg/mL

**Q.** Which LD50 [2] does the source give for polymyxin B here?
**A.** 20.5 mg/kg
